Some test systems named below: SK-OV-3 ovarian; HCC-2998 colon; SN12C renal; MOLT-4 leukemia; HOP-62 NSCLC; SF-539 CNS; CAKI-1 renal; KM12 colon; NCI-H522 lung; NCI-H460 lung.
Test in all cases: NCI anticancer screen, dose series, 48 h

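Dose response: 5 concentrations. Exposure: 48 h. Format: 96-well plates. Endpoint: linear interpolation; highest concentration if not reached. GI50: concentration for 50% inhibition of growth. TGI: concentration producing complete growth inhibition.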

In the case of `Cc1ccc2c(C(C[N+](=O)[O-])c3ccccc3)c(-c3ccccc3)[nH]c2c1` (stereo not drawn), the GI50 in the assay on SK-OV-3 ovarian is 33.8 µM; in the assay with HCC-2998 colon it was 73.7 µM; in the assay on SN12C renal it was 44.1 µM; in the assay on MOLT-4 leukemia it was 34 µM; with HOP-62 NSCLC, 34.2 µM; in the assay with SF-539 CNS, 22.8 µM. For the same compound, the GI50 is 4.73 µM with CAKI-1 renal, 21.6 µM in the assay on KM12 colon, 3.17 µM with NCI-H522 lung and 30.1 µM in the assay with NCI-H460 lung. Also, the TGI in the assay with SK-OV-3 ovarian, in the assay with HCC-2998 colon, in the assay with SN12C renal, in the assay on MOLT-4 leukemia, in the assay on HOP-62 NSCLC and in the assay on SF-539 CNS was more than 95 µM in each case. In addition, the TGI with CAKI-1 renal, with KM12 colon, in the assay with NCI-H522 lung and in the assay with NCI-H460 lung was more than 95 µM throughout.
As to `NC(=O)c1cc(N2CC2)c([N+](=O)[O-])cc1[N+](=O)[O-]`, the GI50 with SK-OV-3 ovarian, in the assay with HCC-2998 colon, with SN12C renal, in the assay with HOP-62 NSCLC, in the assay with SF-539 CNS and in the assay with CAKI-1 renal was more than 200 µM in each case. In addition, the GI50 in the assay on KM12 colon and in the assay with NCI-H522 lung was more than 200 µM throughout. The TGI is more than 200 µM in the assay on SK-OV-3 ovarian; more than 200 µM in the assay on HCC-2998 colon; more than 200 µM in the assay on SN12C renal; more than 63.2 µM in the assay with MOLT-4 leukemia; more than 200 µM in the assay on HOP-62 NSCLC; more than 200 µM in the assay with SF-539 CNS. Besides, the TGI with CAKI-1 renal is more than 200 µM; in the assay on KM12 colon, more than 200 µM; in the assay on NCI-H522 lung it was more than 200 µM; in the assay on NCI-H460 lung, more than 77 µM.
For `CC1(C)N=C(N)N=C(N)N1c1ccc(CNC(=O)Nc2ccc(S(=O)(=O)F)c(Cl)c2)c(Cl)c1`, the GI50 with SK-OV-3 ovarian was more than 45 µM; with HCC-2998 colon, 1.11 µM; in the assay with SN12C renal, 0.867 µM; in the assay with MOLT-4 leukemia, 0.954 µM; with HOP-62 NSCLC it was 9.81 µM; in the assay with SF-539 CNS, 1.11 µM. Also, the GI50 is 12.5 µM in the assay with CAKI-1 renal, 0.589 µM with KM12 colon, 0.624 µM with NCI-H522 lung and 0.0456 µM in the assay on NCI-H460 lung. The TGI is more than 100 µM in the assay on SK-OV-3 ovarian; more than 100 µM in the assay with HCC-2998 colon; more than 100 µM in the assay on SN12C renal; more than 100 µM in the assay with MOLT-4 leukemia; more than 100 µM in the assay with HOP-62 NSCLC; 25 µM in the assay with SF-539 CNS. In addition, the TGI is more than 100 µM in the assay with CAKI-1 renal, more than 100 µM with KM12 colon, 40.2 µM in the assay with NCI-H522 lung and more than 100 µM with NCI-H460 lung.
On to `NCCCCC(NC(=O)C(N)CCCN=C(N)N)C(=O)NC(CCCCN)C(=O)NC(CCCN=C(N)N)C(=O)NC(CCCN=C(N)N)C(=O)NC(CCC(N)=O)C(=O)NC(CCCN=C(N)N)C(=O)NC(CCCN=C(N)N)C(=O)NC(CCCN=C(N)N)C(=O)NCC(=O)NCC(=O)O` (stereo not drawn), for which the GI50 in the assay on SK-OV-3 ovarian, in the assay on HCC-2998 colon, in the assay with SN12C renal, with MOLT-4 leukemia, in the assay with HOP-62 NSCLC and in the assay on SF-539 CNS was more than 50 µM in each case. Also, the GI50 in the assay on CAKI-1 renal, in the assay with KM12 colon, in the assay with NCI-H522 lung and with NCI-H460 lung was more than 50 µM each time. Moreover, the TGI in the assay with SK-OV-3 ovarian, in the assay on HCC-2998 colon, in the assay on SN12C renal, in the assay with MOLT-4 leukemia, in the assay on HOP-62 NSCLC and in the assay on SF-539 CNS was more than 50 µM each time. Moreover, the TGI in the assay on CAKI-1 renal, in the assay with KM12 colon, in the assay on NCI-H522 lung and with NCI-H460 lung was more than 50 µM throughout.
For `CC(Oc1ccc2c(-c3ccc(Cl)cc3)cc(=O)oc2c1)C(=O)O` (stereo not drawn), the TGI in the assay on SK-OV-3 ovarian, in the assay with HCC-2998 colon, with SN12C renal, with MOLT-4 leukemia, with HOP-62 NSCLC and with SF-539 CNS was more than 100 µM throughout. Further, the TGI in the assay with CAKI-1 renal, with KM12 colon, in the assay with NCI-H522 lung and in the assay with NCI-H460 lung was more than 100 µM in each case.
For the compound `Cc1c(Cn2c(C)nc3c(C(=O)O)cc(N4CCOCC4)cc32)cccc1C(F)(F)F`, the GI50 in the assay on SK-OV-3 ovarian is 77.5 µM; with HCC-2998 colon, 72.4 µM; in the assay on SN12C renal, 41.5 µM; in the assay on MOLT-4 leukemia, 56.6 µM; in the assay on HOP-62 NSCLC it was 37.5 µM; in the assay with SF-539 CNS, 72.6 µM. The GI50 with CAKI-1 renal is 7.44 µM; in the assay with KM12 colon, 56.7 µM; in the assay with NCI-H522 lung it was 89 µM; in the assay with NCI-H460 lung it was 40 µM. Besides, the TGI in the assay on SK-OV-3 ovarian, in the assay on HCC-2998 colon, with SN12C renal, with MOLT-4 leukemia, in the assay with HOP-62 NSCLC and with SF-539 CNS was more than 100 µM throughout. In addition, the TGI in the assay on CAKI-1 renal, in the assay on KM12 colon, in the assay with NCI-H522 lung and with NCI-H460 lung was more than 100 µM throughout.
Take `CC1=C([Te]c2ccccc2)C(=O)c2ccccc2C1=O`: the GI50 in the assay with SK-OV-3 ovarian was 0.335 µM; with HCC-2998 colon, 0.483 µM; with SN12C renal, 0.311 µM; in the assay on MOLT-4 leukemia, 0.287 µM; in the assay with HOP-62 NSCLC, 0.266 µM; in the assay on SF-539 CNS, 0.146 µM. Moreover, the GI50 with CAKI-1 renal is 0.974 µM; with KM12 colon, 0.337 µM; in the assay on NCI-H522 lung, 0.909 µM; with NCI-H460 lung, 0.177 µM. For the same compound, the TGI with SK-OV-3 ovarian was 1.28 µM; in the assay with HCC-2998 colon it was 1.55 µM; in the assay with SN12C renal it was 1.47 µM; in the assay on MOLT-4 leukemia, 1.3 µM; in the assay with HOP-62 NSCLC, 0.762 µM; with SF-539 CNS it was 1.03 µM. Also, the TGI is 3.2 µM in the assay with CAKI-1 renal, 1.21 µM in the assay on KM12 colon, 4.24 µM with NCI-H522 lung and 0.391 µM in the assay with NCI-H460 lung.
Turning to `Cc1cc(OCc2nnc3n2S(=O)(=O)c2ccccc2N3C)ccc1Cl`, the TGI in the assay on SK-OV-3 ovarian is 37.4 µM; in the assay on HCC-2998 colon it was more than 100 µM; in the assay on SN12C renal it was more than 100 µM; in the assay with MOLT-4 leukemia it was more than 100 µM; with HOP-62 NSCLC, 29.7 µM; with SF-539 CNS, 38.6 µM. For the same compound, the TGI was more than 100 µM in the assay with CAKI-1 renal, more than 100 µM with KM12 colon, 45.6 µM in the assay on NCI-H522 lung and more than 100 µM in the assay on NCI-H460 lung.
As for `O=C1c2c(c(=O)[nH]c3ccccc23)[C@H](c2ccccc2)[C@@H]2CCCN12`, the GI50 in the assay with SK-OV-3 ovarian was 9.56 µM; in the assay on HCC-2998 colon, 10.9 µM; in the assay with SN12C renal, 3.38 µM; with MOLT-4 leukemia, 5.12 µM; with HOP-62 NSCLC, 4.32 µM; in the assay on SF-539 CNS, 2.6 µM. Moreover, the GI50 in the assay with CAKI-1 renal is 17.6 µM; with KM12 colon, 3.08 µM; in the assay on NCI-H522 lung, 8.56 µM; with NCI-H460 lung, 2.83 µM. The TGI is 80 µM in the assay on SK-OV-3 ovarian; 69.6 µM in the assay on HCC-2998 colon; more than 100 µM in the assay with SN12C renal; 39.2 µM in the assay with MOLT-4 leukemia; 34 µM with HOP-62 NSCLC; 6.7 µM in the assay on SF-539 CNS. Moreover, the TGI is 68.2 µM in the assay on CAKI-1 renal, 13.6 µM in the assay with KM12 colon, more than 100 µM in the assay on NCI-H522 lung and 16.5 µM with NCI-H460 lung.
As for `CCCc1nn(C)c2c(=O)[nH]c(-c3cc(S(=O)(=O)N4CCN(C)CC4)ccc3OCC)nc12`, the GI50 in the assay with SK-OV-3 ovarian, in the assay on HCC-2998 colon, with SN12C renal, with MOLT-4 leukemia, in the assay with HOP-62 NSCLC and in the assay with SF-539 CNS was more than 100 µM throughout. The GI50 in the assay with CAKI-1 renal, with KM12 colon, with NCI-H522 lung and in the assay on NCI-H460 lung was more than 100 µM each time. Further, the TGI with SK-OV-3 ovarian, in the assay with HCC-2998 colon, in the assay on SN12C renal, in the assay on MOLT-4 leukemia, in the assay with HOP-62 NSCLC and in the assay on SF-539 CNS was more than 100 µM throughout. The TGI with CAKI-1 renal, in the assay on KM12 colon, in the assay on NCI-H522 lung and in the assay on NCI-H460 lung was more than 100 µM throughout.
As to `Cc1cc2c(F)c(Oc3ncnc(Nc4ccc(N5C[C@@H](C)N[C@@H](C)C5)cc4)c3C#N)cc(F)c2[nH]1`, the GI50 in the assay on SK-OV-3 ovarian was 3.91 µM; in the assay with HCC-2998 colon it was 1.97 µM; with SN12C renal it was 3.39 µM; in the assay with MOLT-4 leukemia it was 1.67 µM; in the assay on HOP-62 NSCLC it was 2.86 µM; in the assay on SF-539 CNS it was 1.53 µM. The GI50 with CAKI-1 renal was 2.99 µM; in the assay with KM12 colon, 2.55 µM; with NCI-H522 lung it was 2.14 µM; with NCI-H460 lung, 2.06 µM. Further, the TGI with SK-OV-3 ovarian was 13.7 µM; with HCC-2998 colon it was 4.14 µM; in the assay with SN12C renal, 14.3 µM; in the assay on MOLT-4 leukemia it was 5.44 µM; in the assay on HOP-62 NSCLC, 9.87 µM; with SF-539 CNS, 2.94 µM. The TGI in the assay on CAKI-1 renal was 10.9 µM; with KM12 colon it was 7.3 µM; in the assay on NCI-H522 lung, 4.54 µM; in the assay with NCI-H460 lung, 4.37 µM.
For the compound `CC(C)(C)C(=O)N1C(C(=O)O)Cc2ccccc2[C@@H]1Cc1ccccc1` (stereo partly drawn), the TGI in the assay with SK-OV-3 ovarian, with HCC-2998 colon, in the assay on SN12C renal, with MOLT-4 leukemia, in the assay with HOP-62 NSCLC and with SF-539 CNS was more than 100 µM throughout. The TGI with CAKI-1 renal, in the assay with KM12 colon, in the assay with NCI-H522 lung and in the assay with NCI-H460 lung was more than 100 µM throughout.

Source of the values: PubChem BioAssay (NCI).
